# Measured values from ChEMBL document CHEMBL1201862, “PubChem BioAssay data set” (2004).
#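 Compound exposure: 48 hours, 5 concentrations, 96-well plates. GI50 is the concentration that inhibits growth by half.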 The source made the active and inactive calls. No stated cut-off is given here; in the data, active = GI50 up to about 1.1 µM and inactive = higher.
# Assays:
# Assay in all cases: inhibition of tumour cell growth, NCI panel, 48 h
# SK-MEL-5 = test system: SK-MEL-5
# 786-0 = test system: 786-0
# NCI-H23 = test system: NCI-H23
# A498 = test system: A498
# NCI-H226 = test system: NCI-H226
# MDA-MB-231 = test system: MDA-MB-231
# IGROV-1 = test system: IGROV-1
# Hs-578T = test system: Hs-578T
# CCRF-CEM = test system: CCRF-CEM
# TK-10 = test system: TK-10
# EKVX = test system: EKVX
# OVCAR-5 = test system: OVCAR-5
# SK-MEL-28 = test system: SK-MEL-28
# SK-OV-3 = test system: SK-OV-3
# UO-31 = test system: UO-31
# M14 = test system: M14
# ACHN = test system: ACHN
# MDA-MB-435 = test system: MDA-MB-435
# SN12C = test system: SN12C
# COLO 205 = test system: COLO 205
# HOP-92 = test system: HOP-92
# SK-MEL-2 = test system: SK-MEL-2
# SNB-19 = test system: SNB-19
# SF-539 = test system: SF-539
# NCI-H522 = test system: NCI-H522
# HT-29 = test system: HT-29
# Malme-3M = test system: Malme-3M
# UACC-62 = test system: UACC-62
# DU-145 = test system: DU-145
# CAKI-1 = test system: CAKI-1
# MDA-N = test system: MDA-N
# SF-268 = test system: SF-268
# A549 = test system: A549
# SF-295 = test system: SF-295
# UACC-257 = test system: UACC-257
# BT-549 = test system: BT-549
# RXF 393 = test system: RXF 393
# HCT-116 = test system: HCT-116
# HOP-62 = test system: HOP-62
# MCF7 = test system: MCF7
# OVCAR-3 = test system: OVCAR-3
# SW-620 = test system: SW-620
# MOLT-4 = test system: MOLT-4
# T47D = test system: T47D
# RPMI-8226 = test system: RPMI-8226
# KM12 = test system: KM12
# HCC 2998 = test system: HCC 2998
# NCI/ADR-RES = test system: NCI/ADR-RES
# SR = test system: SR
# PC-3 = test system: PC-3
# U-251 = test system: U-251
# HCT-15 = test system: HCT-15
# LOX IMVI = test system: LOX IMVI
# OVCAR-8 = test system: OVCAR-8
# HL-60 = test system: HL-60
# OVCAR-4 = test system: OVCAR-4
# SNB-75 = test system: SNB-75
# NCI-H460 = test system: NCI-H460
# K562 = test system: K562
structure (smiles),measurement,setting,value
CC1(C)CCC[C@]2(C)[C@@H](C=O)C(C=O)=CC[C@@H]12 [POLYGODIAL],GI50,SK-MEL-5,15.6 µM (inactive)
same,GI50,786-0,37 µM (inactive)
same,GI50,NCI-H23,28 µM (inactive)
same,GI50,A498,40.9 µM (inactive)
same,GI50,NCI-H226,20 µM (inactive)
same,GI50,MDA-MB-231,10.6 µM (inactive)
same,GI50,IGROV-1,19 µM (inactive)
same,GI50,Hs-578T,27.9 µM (inactive)
same,GI50,CCRF-CEM,20.3 µM (inactive)
same,GI50,TK-10,25.9 µM (inactive)
same,GI50,EKVX,24.8 µM (inactive)
same,GI50,OVCAR-5,16.4 µM (inactive)
same,GI50,SK-MEL-28,43.2 µM (inactive)
same,GI50,SK-OV-3,30.8 µM (inactive)
same,GI50,UO-31,16.4 µM (inactive)
same,GI50,M14,17.5 µM (inactive)
same,GI50,ACHN,16.9 µM (inactive)
same,GI50,MDA-MB-435,36.6 µM (inactive)
same,GI50,SN12C,20.6 µM (inactive)
same,GI50,COLO 205,18.2 µM (inactive)
same,GI50,HOP-92,20.6 µM (inactive)
same,GI50,SK-MEL-2,18.1 µM (inactive)
same,GI50,SNB-19,18.2 µM (inactive)
same,GI50,SF-539,19.3 µM (inactive)
same,GI50,NCI-H522,15.8 µM (inactive)
same,GI50,HT-29,16.4 µM (inactive)
same,GI50,Malme-3M,15.2 µM (inactive)
same,GI50,UACC-62,18.4 µM (inactive)
same,GI50,DU-145,18.5 µM (inactive)
same,GI50,CAKI-1,6.82 µM (inactive)
same,GI50,MDA-N,13.6 µM (inactive)
same,GI50,SF-268,15.3 µM (inactive)
same,GI50,A549,37.5 µM (inactive)
same,GI50,SF-295,21.9 µM (inactive)
same,GI50,UACC-257,17.1 µM (inactive)
same,GI50,BT-549,25.9 µM (inactive)
same,GI50,RXF 393,17.1 µM (inactive)
same,GI50,HCT-116,28.6 µM (inactive)
same,GI50,HOP-62,30.6 µM (inactive)
same,GI50,MCF7,14.7 µM (inactive)
same,GI50,OVCAR-3,14.9 µM (inactive)
same,GI50,SW-620,35.4 µM (inactive)
same,GI50,MOLT-4,9.33 µM (inactive)
same,GI50,T47D,19.8 µM (inactive)
same,GI50,RPMI-8226,10.7 µM (inactive)
same,GI50,KM12,14.7 µM (inactive)
same,GI50,HCC 2998,18.4 µM (inactive)
same,GI50,NCI/ADR-RES,18.6 µM (inactive)
same,GI50,SR,18.2 µM (inactive)
same,GI50,PC-3,27.7 µM (inactive)
same,GI50,U-251,19 µM (inactive)
same,GI50,HCT-15,17 µM
same,GI50,LOX IMVI,19.1 µM (inactive)
same,GI50,OVCAR-8,16.4 µM (inactive)
same,GI50,HL-60,18.4 µM (inactive)
same,GI50,OVCAR-4,15.8 µM (inactive)
Cc1cc2c(cc1-c1cc3c(cc1C)C(C(C)C)=C(O)C(=O)/C3=C\Nc1cccc3c(N)cccc13)/C(=C/Nc1cccc3c(N)cccc13)C(=O)C(O)=C2C(C)C,GI50,SK-MEL-5,> 100 µM (inactive)
same,GI50,786-0,> 100 µM (inactive)
same,GI50,NCI-H23,> 100 µM (inactive)
same,GI50,A498,> 100 µM (inactive)
same,GI50,NCI-H226,> 100 µM (inactive)
same,GI50,MDA-MB-231,> 100 µM (inactive)
same,GI50,IGROV-1,> 100 µM (inactive)
same,GI50,Hs-578T,> 100 µM (inactive)
same,GI50,CCRF-CEM,39.2 µM (inactive)
same,GI50,TK-10,> 100 µM (inactive)
same,GI50,SNB-75,> 100 µM (inactive)
same,GI50,EKVX,> 100 µM (inactive)
same,GI50,OVCAR-5,> 100 µM (inactive)
same,GI50,SK-MEL-28,> 100 µM (inactive)
same,GI50,SK-OV-3,> 100 µM (inactive)
same,GI50,UO-31,30.8 µM (inactive)
same,GI50,M14,48.5 µM (inactive)
same,GI50,ACHN,> 100 µM (inactive)
same,GI50,MDA-MB-435,> 100 µM (inactive)
same,GI50,SN12C,> 100 µM (inactive)
same,GI50,COLO 205,> 100 µM (inactive)
same,GI50,HOP-92,> 100 µM (inactive)
same,GI50,SK-MEL-2,> 100 µM (inactive)
same,GI50,SNB-19,> 100 µM (inactive)
same,GI50,NCI-H460,> 100 µM (inactive)
same,GI50,NCI-H522,> 100 µM (inactive)
same,GI50,HT-29,> 100 µM (inactive)
same,GI50,Malme-3M,> 100 µM (inactive)
same,GI50,UACC-62,> 100 µM (inactive)
same,GI50,DU-145,> 100 µM (inactive)
same,GI50,CAKI-1,> 100 µM (inactive)
same,GI50,MDA-N,> 100 µM (inactive)
same,GI50,SF-268,> 100 µM (inactive)
same,GI50,A549,59.4 µM (inactive)
same,GI50,SF-295,> 100 µM (inactive)
same,GI50,UACC-257,> 100 µM (inactive)
same,GI50,BT-549,> 100 µM (inactive)
same,GI50,RXF 393,> 100 µM (inactive)
same,GI50,HCT-116,> 100 µM (inactive)
same,GI50,HOP-62,> 100 µM (inactive)
same,GI50,MCF7,> 100 µM (inactive)
same,GI50,OVCAR-3,> 100 µM (inactive)
same,GI50,SW-620,> 100 µM (inactive)
same,GI50,MOLT-4,37.4 µM (inactive)
same,GI50,K562,54.3 µM (inactive)
same,GI50,T47D,> 100 µM (inactive)
same,GI50,RPMI-8226,> 100 µM (inactive)
same,GI50,KM12,> 100 µM (inactive)
same,GI50,HCC 2998,> 100 µM (inactive)
same,GI50,NCI/ADR-RES,> 100 µM (inactive)
same,GI50,SR,65.8 µM (inactive)
same,GI50,PC-3,79.8 µM (inactive)
same,GI50,U-251,49.1 µM (inactive)
same,GI50,HCT-15,> 100 µM
same,GI50,LOX IMVI,> 100 µM (inactive)
same,GI50,OVCAR-8,> 100 µM (inactive)
same,GI50,HL-60,33.8 µM (inactive)
same,GI50,OVCAR-4,> 100 µM (inactive)
